Laboratory results published in patent publication US8883745B2, “C—glycolipids with enhanced Th-1 profile” (New York University, priority 2006, dated 2014).

Columns and labels:
Format in all cases: in vivo
IFN-γ [1] = assay: IFN-γ levels in sera upon i.v. glycolipid administration to BALB/c mice (ELISA); parameters: IFN-γ levels, test 1 / IFN-γ levels, test 2 / IFN-γ levels, average / IFN-γ levels, Total: unit not given here; settings: BALB/c
In short: (§1)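 Single i.v. dose, 1 μg glycolipid in PBS, female 5–6-week-old mice; serum sampling 0–72 h. ELISA readout.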

IFN-γ [2] = assay: IFN-γ levels in sera upon i.v. glycolipid administration to C57BL/6 mice (ELISA); parameters: IFN-γ levels, test 1 / IFN-γ levels, test 2 / IFN-γ levels, average / IFN-γ levels, Total / IFN-γ (B6): unit not given here
In short: as §1

IL-12 = IL-12 levels in sera upon i.v. glycolipid administration to BALB/c mice (ELISA); parameters: IL-12 levels, test 1 / IL-12 levels, test 2 / IL-12 levels, average / IL-12 levels, Total: unit not given here
In short: as §1

IL-4 = IL-4 levels in sera upon i.v. glycolipid administration to BALB/c mice (ELISA); parameters: unit not given here
In short: as §1

[3] = ratio calculated from Tables 1-6

CCCCCCCCCCCCCCCCCCCCCCCCCC(=O)N[C@@H](CO[C@H]1O[C@H](CO)[C@H](O)[C@H](O)[C@H]1O)[C@H](O)[C@H](O)CCCCCCCCCCCCCC [KRN, (2S,3S,4R)-1-O-(α-D-galactopyranosyl)-2-(N-hexacosanoylamino)-1,3,4-,-octadecanetriol, reference compound]
IFN-γ/IL-4 (BALB/c) (IFN-γ [1]; [3]): 10 | IFN-γ levels, average (IFN-γ [1]; serum, hour 0): 27 | IFN-γ levels, test 1 (IFN-γ [1]; serum, hour 0): 27 | IFN-γ levels, test 2 (IFN-γ [1]; serum, hour 0): 27 | IFN-γ levels, average (IFN-γ [1]; serum, hour 2): 945 | IFN-γ levels, test 1 (IFN-γ [1]; serum, hour 2): 841 | IFN-γ levels, test 2 (IFN-γ [1]; serum, hour 2): 1049 | IFN-γ levels, average (IFN-γ [1]; serum, hour 6): 4752.5 | IFN-γ levels, test 1 (IFN-γ [1]; serum, hour 6): 4170 | IFN-γ levels, test 2 (IFN-γ [1]; serum, hour 6): 5335 | IFN-γ levels, average (IFN-γ [1]; serum, hour 12): 8393.5 | IFN-γ levels, test 1 (IFN-γ [1]; serum, hour 12): 7996 | IFN-γ levels, test 2 (IFN-γ [1]; serum, hour 12): 8791 | IFN-γ levels, average (IFN-γ [1]; serum, hour 24): 6740 | IFN-γ levels, test 1 (IFN-γ [1]; serum, hour 24): 6497 | IFN-γ levels, test 2 (IFN-γ [1]; serum, hour 24): 6983 | IFN-γ levels, average (IFN-γ [1]; serum, hour 48): 112.5 | IFN-γ levels, test 1 (IFN-γ [1]; serum, hour 48): 86 | IFN-γ levels, test 2 (IFN-γ [1]; serum, hour 48): 139 | IFN-γ levels, average (IFN-γ [1]; serum, hour 72): 36 | IFN-γ levels, test 1 (IFN-γ [1]; serum, hour 72): 36 | IFN-γ levels, test 2 (IFN-γ [1]; serum, hour 72): 36 | IFN-γ levels, Total (IFN-γ [1]; serum, total over hours 0-72): 21008 | IFN-γ/IL-4 (B6) (IFN-γ [2]; C57BL/6, ratio calculated from Tables 1-6): 3 | IFN-γ levels, average (IFN-γ [2]; C57BL/6, serum, hour 0): 31 | IFN-γ levels, test 1 (IFN-γ [2]; C57BL/6, serum, hour 0): 31 | IFN-γ levels, test 2 (IFN-γ [2]; C57BL/6, serum, hour 0): 31 | IFN-γ levels, average (IFN-γ [2]; C57BL/6, serum, hour 2): 874.5 | IFN-γ levels, test 1 (IFN-γ [2]; C57BL/6, serum, hour 2): 938 | IFN-γ levels, test 2 (IFN-γ [2]; C57BL/6, serum, hour 2): 811 | IFN-γ levels, average (IFN-γ [2]; C57BL/6, serum, hour 6): 1919 | IFN-γ levels, test 1 (IFN-γ [2]; C57BL/6, serum, hour 6): 1811 | IFN-γ levels, test 2 (IFN-γ [2]; C57BL/6, serum, hour 6): 2027 | IFN-γ levels, average (IFN-γ [2]; C57BL/6, serum, hour 12): 5352.5 | IFN-γ levels, test 1 (IFN-γ [2]; C57BL/6, serum, hour 12): 5179 | IFN-γ levels, test 2 (IFN-γ [2]; C57BL/6, serum, hour 12): 5526 | IFN-γ levels, average (IFN-γ [2]; C57BL/6, serum, hour 24): 2216 | IFN-γ levels, test 1 (IFN-γ [2]; C57BL/6, serum, hour 24): 2214 | IFN-γ levels, test 2 (IFN-γ [2]; C57BL/6, serum, hour 24): 2218 | IFN-γ levels, average (IFN-γ [2]; C57BL/6, serum, hour 48): 126 | IFN-γ levels, test 1 (IFN-γ [2]; C57BL/6, serum, hour 48): 252 | IFN-γ levels, test 2 (IFN-γ [2]; C57BL/6, serum, hour 48): 0 | IFN-γ levels, average (IFN-γ [2]; C57BL/6, serum, hour 72): 166 | IFN-γ levels, test 1 (IFN-γ [2]; C57BL/6, serum, hour 72): 332 | IFN-γ levels, test 2 (IFN-γ [2]; C57BL/6, serum, hour 72): 0 | IFN-γ levels, Total (IFN-γ [2]; C57BL/6, serum, total over hours 0-72): 10686 | IL-12/IL-4 (BALB/c) (IL-12; [3]): 2 | IL-12 levels, average (IL-12; serum, hour 0): 5 | IL-12 levels, test 1 (IL-12; serum, hour 0): 5 | IL-12 levels, test 2 (IL-12; serum, hour 0): 5 | IL-12 levels, average (IL-12; serum, hour 2): 124 | IL-12 levels, test 1 (IL-12; serum, hour 2): 69 | IL-12 levels, test 2 (IL-12; serum, hour 2): 179 | IL-12 levels, average (IL-12; serum, hour 6): 3067.5 | IL-12 levels, test 1 (IL-12; serum, hour 6): 2567 | IL-12 levels, test 2 (IL-12; serum, hour 6): 3568 | IL-12 levels, average (IL-12; serum, hour 12): 437.5 | IL-12 levels, test 1 (IL-12; serum, hour 12): 282 | IL-12 levels, test 2 (IL-12; serum, hour 12): 593 | IL-12 levels, average (IL-12; serum, hour 24): 265.5 | IL-12 levels, test 1 (IL-12; serum, hour 24): 119 | IL-12 levels, test 2 (IL-12; serum, hour 24): 412 | IL-12 levels, average (IL-12; serum, hour 48): 68 | IL-12 levels, test 1 (IL-12; serum, hour 48): 57 | IL-12 levels, test 2 (IL-12; serum, hour 48): 79 | IL-12 levels, average (IL-12; serum, hour 72): 61 | IL-12 levels, test 1 (IL-12; serum, hour 72): 57 | IL-12 levels, test 2 (IL-12; serum, hour 72): 65 | IL-12 levels, Total (IL-12; serum, total over hours 0-72): 4030 | IL-4 level, average (IL-4; hour 0): 27 | IL-4 level, test 1 (IL-4; hour 0): 27 | IL-4 level, test 2 (IL-4; hour 0): 27 | IL-4 level, average (IL-4; hour 2): 1690 | IL-4 level, test 1 (IL-4; hour 2): 1809 | IL-4 level, test 2 (IL-4; hour 2): 1571 | IL-4 level, average (IL-4; hour 6): 204 | IL-4 level, test 1 (IL-4; hour 6): 214 | IL-4 level, test 2 (IL-4; hour 6): 194 | IL-4 level, average (IL-4; hour 12): 89 | IL-4 level, test 1 (IL-4; hour 12): 78 | IL-4 level, test 2 (IL-4; hour 12): 100 | IL-4 level, average (IL-4; hour 24): 50.5 | IL-4 level, test 1 (IL-4; hour 24): 51 | IL-4 level, test 2 (IL-4; hour 24): 50 | IL-4 level, average (IL-4; hour 48): 44 | IL-4 level, test 1 (IL-4; hour 48): 46 | IL-4 level, test 2 (IL-4; hour 48): 42 | IL-4 level, average (IL-4; hour 72): 12 | IL-4 level, test 1 (IL-4; hour 72): 12 | IL-4 level, test 2 (IL-4; hour 72): 12 | IL-4 level, Total (IL-4; total over hours 0-72): 2117
